In patent publication US20250235543A1, “MODIFIED PROTEINS AND PROTEIN DEGRADERS” (Cullgen (Shanghai), Inc., priority 2021, published 2025):

How the values were obtained:
Format in all cases: cell-based
[1] = system: BT-549; experiment: Cell viability assay, BT-549; conditions: Homo sapiens, 72 h; BT-549, TNBC, 3 days; read-out: Cellular Anti-proliferation activity (IC50)
Protocol: (§1) Cells were treated with CDK4/6 inhibitors palbociclib, ribociclib, or abemaciclib, or heterobifunctional compounds CPD-002 or CPD-031 following a 9-point serial dilution for 3 days.
(§2) Cells were seeded at a density of 2,000-5,000 cells per well in 96-well assay plates and treated with test compounds following a 10-point serial dilution for 3-6 days. Cell viability was determined using the CellTiter-Lumi assay kit according to the manufacturer's instructions. The dose-response curves were determined and IC50 values were calculated using the GraphPad Prism software following a nonlinear regression (least squares fit) method. Data presented was mean±standard deviation (SD) unless otherwise indicated.

[2] = system: NCI-H522; experiment: Cell viability assay, NCI-H522; conditions: Homo sapiens, 72 h; NCI-H522, NSCLC, 3 days; read-out: Cellular Anti-proliferation activity (IC50)
Protocol: as §1, §2

[3] = system: KURAMOCHI; experiment: Cell viability assay, KURAMOCHI; conditions: 72 h, OC, 3 days, read-out: Cellular Anti-proliferation activity (IC50)
Protocol: as §1, §2

[4] = system: Hs578T; experiment: Cell viability assay, Hs578T; conditions: Homo sapiens, Hs-578T, 72 h, TNBC, 3 days, read-out: Cellular Anti-proliferation activity (IC50)
Protocol: as §1, §2

[5] = system: Calu-1; experiment: Cell viability assay, Calu-1; conditions: Homo sapiens, 72 h; Calu-1, NSCLC, 3 days; read-out: Cellular Anti-proliferation activity (IC50)
Protocol: as §1, §2

[6] = system: MDA-MB-468; experiment: Cell viability assay, MDA-MB-468; conditions: Homo sapiens, 72 h; MDA-MB-468, TNBC, 3 days; read-out: Cellular Anti-proliferation activity (IC50)
Protocol: as §1, §2

[7] = system: MDA-MB-157; experiment: Cell viability assay, MDA-MB-157; conditions: Homo sapiens, 72 h; MDA-MB-157, TNBC, 3 days; read-out: Cellular Anti-proliferation activity (IC50)
Protocol: as §1, §2

[8] = system: MDA-MB-453; experiment: Cell viability assay, MDA-MB-453; conditions: Homo sapiens, 72 h; MDA-MB-453, TNBC, 3 days; read-out: Cellular Anti-proliferation activity (IC50)
Protocol: as §1, §2

[9] = system: OVCAR3; experiment: Cell viability assay, OVCAR3; conditions: Homo sapiens, OVCAR-3, 72 h; OVCAR3, OC, 3 days; read-out: Cellular Anti-proliferation activity (IC50)
Protocol: as §1, §2

[10] = system: T47D cells; experiment: Flow cytometric analysis of Annexin V/7-AAD stained T47D cells; conditions: 6 days
Protocol: ER^+ breast cancer T47D cells were treated with DMSO, palbociclib, heterobifunctional compound CPD-343, or negative control compound CPD-380 for 6 days at doses approximating IC50 and IC90 concentrations determined in FIGS. 10A and 13. Cells were harvested by trypsinization, staining was carried out using the Annexin V Apoptosis Detection Kit. The percentages of early apoptotic (Annexin V^+7-AAD^−, lower right quadrant), late apoptotic (Annexin V^+7-AAD^+, upper right quadrant) and necrotic cells (Annexin V-7-AAD^+, upper left quadrant) are indicated on dot plots. […] Furthermore, we developed one ER^+ breast cancer T47D model with acquired resistance after long period of treatment with 1 μM palbociclib (over IC90). Cells were deemed resistant when growing in the presence of palbo at the same rate as parental cells. Palbo resistance was determined by CellTiter-Lumi cell viability assay.

[11] = system: Cal-62; experiment: Cell viability assay, Cal-62; conditions: Homo sapiens, 72 h; Cal-62, TC, 3 days; read-out: Cellular Anti-proliferation activity (IC50)
Protocol: as §1, §2

[12] = system: MIA PaCa-2; experiment: Cell viability assay, MIA PaCa-2; conditions: Homo sapiens, 72 h; MIA PaCa-2, PC, 3 days; read-out: Cellular Anti-proliferation activity (IC50)
Protocol: as §1, §2

IC50 [1] [µM]	IC50 [2] [µM]	IC50 [5] [µM]	IC50 [6] [µM]	IC50 [7] [µM]	IC50 [8] [µM]	IC50 [9] [µM]	IC50 [12] [µM]	SMILES	IC50 [3] [µM]	IC50 [4] [µM]	Annexin V+ population ([10]; 100 nM) [%]	Annexin V+ population ([10]; 1 μM) [%]	IC50 [11] [µM]
> 10	> 10	> 10	> 10	> 10	2.7	> 10	> 3	CC(=O)c1c(C)c2cnc(Nc3ccc(N4CCNCC4)cn3)nc2n(C2CCCC2)c1=O [Palbociclib, palbociclib]	> 10	> 10	15.9	26.1	> 10
2.07	> 3	29	3.09	> 10	0.03	> 10	0.55	CCN1CCN(Cc2ccc(Nc3ncc(F)c(-c4cc(F)c5nc(C)n(C(C)C)c5c4)n3)nc2)CC1 [abemaciclib]	2.5	1.2	–	–	2.12
> 10	> 10	> 10	> 10	> 10	> 3	> 10	> 3	CN(C)C(=O)c1cc2cnc(Nc3ccc(N4CCNCC4)cn3)nc2n1C1CCCC1 [ribociclib]	> 10	> 10	–	–	> 10
